Data as given in ChEMBL document CHEMBL4342421, “Current scenario of tetrazole hybrids for antibacterial activity” (Eur J Med Chem, 2019).
Converted amounts (≈) assume the structure as drawn.

Tests used:
[1] = test system: SiHa; assay: Growth inhibition of human SiHa cells; type: functional
[2] = test system: MDA-MB-231; assay: Growth inhibition of human MDA-MB-231 cells; type: functional
[3] = test system: PANC-1; assay: Growth inhibition of human PANC1 cells; type: functional
[4] = test system: Salmonella typhimurium; assay: Antimicrobial activity against Salmonella typhimurium; type: functional, Salmonella enterica subsp. enterica serovar Typhimurium; settings: Salmonella enterica
[5] = test system: Bacillus subtilis; assay: Antimicrobial activity against Bacillus subtilis; type: functional
[6] = test system: Escherichia coli; assay: Antimicrobial activity against Escherichia coli; type: functional
[7] = test system: Priestia megaterium; assay: Antimicrobial activity against Bacillus megaterium; type: functional
[8] = test system: Micrococcus luteus; assay: Antibacterial activity against Micrococcus luteus; type: functional
[9] = test system: Staphylococcus aureus; assay: Antimicrobial activity against Staphylococcus aureus ATCC 25923 assessed as zone of inhibition at 100 ug/ml after 24 hrs by disc diffusion method; type: functional; settings: ATCC 25923, 24 h, read-out: IZ
[10] = test system: Streptococcus agalactiae; assay: Antimicrobial activity against Streptococcus agalactiae 55118 assessed as zone of inhibition at 100 ug/ml after 24 hrs by disc diffusion method; type: functional; settings: Streptococcus agalactiae, 55118, 24 h; read-out: IZ
[11] = test system: Klebsiella pneumoniae; assay: Antimicrobial activity against Klebsiella pneumoniae ATCC 700603 assessed as zone of inhibition at 100 ug/ml after 24 hrs by disc diffusion method; type: functional; settings: ATCC 700603, 24 h, read-out: IZ
[12] = test system: Pichia norvegensis; assay: Antifungal activity against Candida mycoderma after 24 hrs; type: functional
[13] = test system: Aspergillus flavus; assay: Antifungal activity against Aspergillus flavus after 24 hrs; type: functional
[14] = test system: Cyberlindnera jadinii; assay: Antifungal activity against Candida utilis after 24 hrs; type: functional; settings: Williopsis jadinii
[15] = test system: Shigella dysenteriae; assay: Antimicrobial activity against Shigella dysenteriae after 24 hrs by two-fold broth serial dilution method; type: functional
[16] = test system: Candida albicans; assay: Antifungal activity against Candida albicans ATCC 76615 after 24 hrs; type: functional; settings: ATCC 76615, 24 h
[17] = test system: Pseudomonas aeruginosa; assay: Antimicrobial activity against Pseudomonas aeruginosa ATCC 27853 after 24 hrs by two-fold broth serial dilution method; type: functional; settings: ATCC 27853, 24 h
[18] = test system: Bacillus subtilis; assay: Antibacterial activity against Bacillus subtilis ATCC 21216 after 24 hrs by two-fold broth serial dilution method; type: functional; settings: ATCC 21216, 24 h
[19] = test system: Saccharomyces cerevisiae; assay: Antifungal activity against Saccharomyces cerevisiae after 24 hrs; type: functional
[20] = test system: Escherichia coli; assay: Antimicrobial activity against Escherichia coli JM 109 after 24 hrs by two-fold broth serial dilution method; type: functional; settings: JM 109, 24 h
[21] = test system: Staphylococcus aureus; assay: Antibacterial activity against methicillin resistant Staphylococcus aureus N315 after 24 hrs by two-fold broth serial dilution method; type: functional; settings: N315, 24 h
[22] = test system: Micrococcus luteus; assay: Antibacterial activity against Micrococcus luteus ATCC 4698 after 24 hrs by two-fold broth serial dilution method; type: functional; settings: ATCC 4698, 24 h
[23] = test system: Escherichia coli; assay: Antimicrobial activity against Escherichia coli ATCC 25922 after 48 hrs by NCCLS protocol based method; type: functional; settings: ATCC 25922, 48 h
[24] = test system: Candida albicans; assay: Antifungal activity against Candida albicans MTCC 277 after 48 hrs by NCCLS protocol based method; type: functional; settings: MTCC 277, 48 h
[25] = test system: Bacillus subtilis; assay: Antimicrobial activity against Bacillus subtilis NCIM 2250 after 48 hrs by NCCLS protocol based method; type: functional; settings: NCIM 2250, 48 h
[26] = test system: Aspergillus niger; assay: Antifungal activity against Aspergillus niger NCIM 545 after 48 hrs by NCCLS protocol based method; type: functional; settings: NCIM 545, 48 h
[27] = test system: Candida tropicalis; assay: Antifungal activity against Candida tropicalis; type: functional
[28] = test system: Nakaseomyces glabratus; assay: Antifungal activity against Candida glabrata; type: functional
[29] = test system: Candida albicans; assay: Antifungal activity against Candida albicans; type: functional
[30] = test system: Candida albicans; assay: Antifungal activity against Candida albicans assessed as zone of inhibition at 50 ug/ml; type: functional; settings: read-out: IZ
[31] = test system: Aspergillus niger; assay: Antifungal activity against Aspergillus niger assessed as zone of inhibition at 50 ug/ml; type: functional; settings: read-out: IZ
[32] = test system: Staphylococcus aureus; assay: Antimicrobial activity against Staphylococcus aureus assessed as zone of inhibition at 50 ug/ml; type: functional; settings: read-out: IZ
[33] = test system: Escherichia coli; assay: Antimicrobial activity against Escherichia coli assessed as zone of inhibition at 50 ug/ml; type: functional; settings: read-out: IZ

SMILES: CC/C(=C(\c1ccccc1)c1ccc(OCCN(C)C)cc1)c1ccccc1 [TAMOXIFEN]
- GI50 [1]: 0.12 to 0.24 µM
- GI50 [2]: 0.12 to 0.24 µM
- GI50 [3]: 0.12 to 0.24 µM

SMILES: O=C(O)c1cn(C2CC2)c2cc(N3CCN(C(=O)CCSc4nnnn4-c4ccc(F)c(F)c4F)CC3)c(F)cc2c1=O
- MIC [4]: 15.6 µg/mL (≈ 25.3 µM)
- GI50 [1]: ≤ 1 µM
- MIC [5]: 15.6 µg/mL (≈ 25.3 µM)
- MIC [6]: 15.6 µg/mL (≈ 25.3 µM)
- GI50 [2]: ≤ 1 µM
- MIC [7]: 15.6 µg/mL (≈ 25.3 µM)
- GI50 [3]: ≤ 1 µM
- MIC [8]: 15.6 µg/mL (≈ 25.3 µM)

SMILES: CCn1cc(C(=O)O)c(=O)c2cnc(N3CCNCC3)nc21 [PIPEMIDIC ACID]
- MIC [4]: 31.2 µg/mL (≈ 103 µM)
- MIC [5]: 31.2 µg/mL (≈ 103 µM)
- MIC [6]: 31.2 µg/mL (≈ 103 µM)
- MIC [7]: 31.2 µg/mL (≈ 103 µM)
- MIC [8]: 31.2 µg/mL (≈ 103 µM)

SMILES: COc1nc(N)nc(OC)c1Sc1nnnn1Cc1ccccc1
- zone of inhibition at 100 µg/mL [9]: 10 to 24 mm
- zone of inhibition at 100 µg/mL [10]: 10 to 24 mm
- zone of inhibition at 100 µg/mL [11]: 10 to 24 mm

SMILES: CCn1cc(C(=O)O)c(=O)c2cc(F)c(N3CCNCC3)cc21 [NORFLOXACIN]
- MIC [12]: 1 to 16 µg/mL (≈ 3.13 to 50.1 µM)
- MIC [13]: 1 to 16 µg/mL (≈ 3.13 to 50.1 µM)
- MIC [14]: 1 to 16 µg/mL (≈ 3.13 to 50.1 µM)
- MIC [15]: 1 to 16 µg/mL (≈ 3.13 to 50.1 µM)
- MIC [16]: 1 to 16 µg/mL (≈ 3.13 to 50.1 µM)
- MIC [17]: 1 to 16 µg/mL (≈ 3.13 to 50.1 µM)
- MIC [18]: 1 to 16 µg/mL (≈ 3.13 to 50.1 µM)
- MIC [19]: 1 to 16 µg/mL (≈ 3.13 to 50.1 µM)
- MIC [20]: 1 to 16 µg/mL (≈ 3.13 to 50.1 µM)
- MIC [21]: 1 to 16 µg/mL (≈ 3.13 to 50.1 µM)
- MIC [22]: 1 to 16 µg/mL (≈ 3.13 to 50.1 µM)

SMILES: COc1nc(N)nc(OC)c1Sc1nnnn1CC1CC1
- zone of inhibition at 100 µg/mL [9]: 10 to 24 mm
- zone of inhibition at 100 µg/mL [10]: 10 to 24 mm
- zone of inhibition at 100 µg/mL [11]: 10 to 24 mm

SMILES: CCOC(=O)C(C#N)C(c1cc2ccc(C)cc2n2nnnc12)P(=O)(OCC)OCC (stereo not drawn)
- MIC [23]: 10 to 20 µg/mL (≈ 22.5 to 44.9 µM)
- MIC [24]: 10 to 20 µg/mL (≈ 22.5 to 44.9 µM)
- MIC [25]: 10 to 20 µg/mL (≈ 22.5 to 44.9 µM)
- MIC [26]: 10 to 20 µg/mL (≈ 22.5 to 44.9 µM)

SMILES: CCn1nnnc1SCCC(=O)N1CCN(c2cc3c(cc2F)c(=O)c(C(=O)O)cn3C2CC2)CC1
- MIC [4]: 15.6 µg/mL (≈ 30.3 µM)
- GI50 [1]: ≤ 1 µM
- MIC [5]: 15.6 µg/mL (≈ 30.3 µM)
- MIC [6]: 15.6 µg/mL (≈ 30.3 µM)
- GI50 [2]: ≤ 1 µM
- MIC [7]: 15.6 µg/mL (≈ 30.3 µM)
- GI50 [3]: ≤ 1 µM
- MIC [8]: 15.6 µg/mL (≈ 30.3 µM)

SMILES: Cc1cc(=O)oc2cc(OCC(O)Cn3cnnn3)ccc12 (stereo not drawn)
- MIC [12]: 8 to 512 µg/mL (≈ 26.5 to 1690 µM)
- MIC [13]: 8 to 512 µg/mL (≈ 26.5 to 1690 µM)
- MIC [14]: 8 to 512 µg/mL (≈ 26.5 to 1690 µM)
- MIC [15]: 8 to 512 µg/mL (≈ 26.5 to 1690 µM)
- MIC [16]: 8 to 512 µg/mL (≈ 26.5 to 1690 µM)
- MIC [17]: 8 to 512 µg/mL (≈ 26.5 to 1690 µM)
- MIC [18]: 8 to 512 µg/mL (≈ 26.5 to 1690 µM)
- MIC [19]: 8 to 512 µg/mL (≈ 26.5 to 1690 µM)
- MIC [20]: 8 to 512 µg/mL (≈ 26.5 to 1690 µM)
- MIC [21]: 8 to 512 µg/mL (≈ 26.5 to 1690 µM)
- MIC [22]: 8 to 512 µg/mL (≈ 26.5 to 1690 µM)

SMILES: CCOC(=O)C(C#N)C(c1cc2cc(OC)ccc2n2nnnc12)P(=O)(OCC)OCC (stereo not drawn)
- MIC [23]: 10 to 20 µg/mL (≈ 21.7 to 43.3 µM)
- MIC [24]: 10 to 20 µg/mL (≈ 21.7 to 43.3 µM)
- MIC [25]: 10 to 20 µg/mL (≈ 21.7 to 43.3 µM)
- MIC [26]: 10 to 20 µg/mL (≈ 21.7 to 43.3 µM)

SMILES: CCCCn1nnnc1Sc1c(OC)nc(N)nc1OC
- zone of inhibition at 100 µg/mL [9]: 10 to 24 mm
- zone of inhibition at 100 µg/mL [10]: 10 to 24 mm
- zone of inhibition at 100 µg/mL [11]: 10 to 24 mm

SMILES: CCOC(=O)C(C#N)C(c1cc2cc(C)ccc2n2nnnc12)P(=O)(OCC)OCC (stereo not drawn)
- MIC [23]: 10 to 20 µg/mL (≈ 22.5 to 44.9 µM)
- MIC [24]: 10 to 20 µg/mL (≈ 22.5 to 44.9 µM)
- MIC [25]: 10 to 20 µg/mL (≈ 22.5 to 44.9 µM)
- MIC [26]: 10 to 20 µg/mL (≈ 22.5 to 44.9 µM)

SMILES: Clc1ccc(COC(Cn2ccnc2)c2ccc(Cl)cc2Cl)c(Cl)c1 (stereo not drawn) [MICONAZOLE]
- MIC [27]: 12.5 to 800 µg/mL (≈ 30 to 1920 µM)
- MIC [28]: 12.5 to 800 µg/mL (≈ 30 to 1920 µM)
- MIC [29]: 12.5 to 800 µg/mL (≈ 30 to 1920 µM)

SMILES: O=C(O)c1cn(C2CC2)c2cc(N3CCN(C(=O)CCSc4nnnn4Cc4ccccc4)CC3)c(F)cc2c1=O
- MIC [4]: 15.6 µg/mL (≈ 27 µM)
- GI50 [1]: ≤ 1 µM
- MIC [5]: 15.6 µg/mL (≈ 27 µM)
- MIC [6]: 15.6 µg/mL (≈ 27 µM)
- GI50 [2]: ≤ 1 µM
- MIC [7]: 15.6 µg/mL (≈ 27 µM)
- GI50 [3]: ≤ 1 µM
- MIC [8]: 15.6 µg/mL (≈ 27 µM)

SMILES: CCOC(=O)C(C#N)C(c1cc2c(OCC)cccc2n2nnnc12)P(=O)(OCC)OCC (stereo not drawn)
- MIC [23]: 10 to 20 µg/mL (≈ 21 to 42.1 µM)
- MIC [24]: 10 to 20 µg/mL (≈ 21 to 42.1 µM)
- MIC [25]: 10 to 20 µg/mL (≈ 21 to 42.1 µM)
- MIC [26]: 10 to 20 µg/mL (≈ 21 to 42.1 µM)

SMILES: COC1=CC(=O)C[C@@H](C)[C@]12Oc1c(Cl)c(OC)cc(OC)c1C2=O [GRISEOFULVIN]
- zone of inhibition at 50 µg/mL [30]: 21 to 24 mm
- zone of inhibition at 50 µg/mL [31]: 21 to 24 mm
- MIC [23]: 10 µg/mL (≈ 28.3 µM)
- MIC [24]: 10 µg/mL (≈ 28.3 µM)
- zone of inhibition at 50 µg/mL [32]: 21 to 24 mm
- MIC [25]: 10 µg/mL (≈ 28.3 µM)
- zone of inhibition at 50 µg/mL [33]: 21 to 24 mm
- MIC [26]: 10 µg/mL (≈ 28.3 µM)

SMILES: CCCCCCn1nnnc1Sc1c(OC)nc(N)nc1OC
- zone of inhibition at 100 µg/mL [9]: 10 to 24 mm
- zone of inhibition at 100 µg/mL [10]: 10 to 24 mm
- zone of inhibition at 100 µg/mL [11]: 10 to 24 mm
